Test results: patent US20080076824A1, “Compounds That Inhibit Replication Of Human Immunodeficiency Virus” (priority 2004, published 2008)
Structures can show the parent of a compound that is named as a salt. Residues, ends and D or L forms follow the SMILES beside them.

Experiments:
in vitro = conditions: human
[1] = test system: HIV-1 laboratory strains and clinical isolates; conditions: wide variety of HIV-1 laboratory strains and clinical isolates; cited from earlier work
[2] = Cytotoxicity / cell proliferation in CEM cells; conditions: human
CEM cells = experiment: Cytotoxicity / cell proliferation in CEM cells
HIV (SF2 virus) = experiment: HIV infectivity assay, SF2-infected H9 cells, visible syncytia; format: cell-based; conditions: for Visible syncytia: H9/SF2, day 11
[3] = Conversion of G-NH2 to Metabolite X in 10% pig serum with and without reducing agents; format: in vitro ADME; conditions: absence of GTT, NAC and DTT
Procedure: In another set of experiments, the conversion of GNH2 to modified glycinamide (Metabolite X) in pig serum (10%) was monitored over time in the presence and absence of differing concentrations (e.g., 40 mM, 10 mM, 4 mM) of reducing agents (glutathione (GTT), N-acetyl cysteine (NAC), and dithiothreitol (DTT)). […] See Han et al., Bull. Korean. Chem. Soc., 17, 659-661 (1996). In the absence of GTT, NAC and DTT, almost 100% coversion to Metabolite X was seen.

[4] = Conversion of [14C]G-NH2 by Phaseolus vulgaris root nodule extract; format: biochemical; conditions: overnight, 37° C.
Procedure: An extract from Phaseolus vulgaris root nodule was prepared as follows: approximately 20 g of root nodules of 3-4 week old kidney beans (Phaseolus vulgaris) were removed, washed with potassium phosphate buffer 50 mM pH 8.0 and homogenized with 30 ml buffer. Then, the homogenate was sonicated (3×20 sec) on ice, and centrifuged for 15 min, 4° C. at 3,000 rpm. The supernatant was then centrifuged at 15,000 rpm during 20 min at 4° C., aliquoted and stored at −80° C. before use. To the reaction mixture (50 mM potassium phosphate buffer pH 8.0) was added: 0.1 μCi [^14C]G-NH2 and 50 μl extract supernatant (100%, 50% and 20%) and 50 μl buffer. The reaction proceeded overnight (˜18 hrs) at 37° C. Then, methanol was added (200 μl) to stop the reaction and the reaction mixture was subjected to cation exchange column chromatography, as described above. A reaction mixture containing bovine serum was also evaluated as a control.

[5] = Conversion of radiolabeled G-NH2 to modified G-NH2 by fetal bovine sera; format: in vitro ADME; conditions: 10% fetal bovine sera in PBS, 37° C.
Procedure: Several lots of human sera and fetal bovine sera were analyzed for their ability to convert G-NH2 to modified G-NH2. Radiolabeled cation exchange HPLC purified G-NH2 (see EXAMPLE 3) was incubated with the various sera at a 10% final concentration in PBS at 37° C. for 15 minutes and 1, 6, 24, or 72 hours. Subsequently, the amount of radiolabeled modified G-NH2 was evaluated using the cation exchange HPLC approach described above.

[6] = Conversion of [14C]G-NH2 to Metabolite X by sera of different animals; format: in vitro ADME
Procedure: Next, an evaluation of sera obtained from other animals was analyzed for their ability to convert G-NH2 to modified G-NH2. Serum obtained from pigs (PS), mice (MS), dogs (CS), cats (FS), horse (ES), and monkey (SS) was incubated with HPLC purified G-NH2 and at 15 minutes, 1 hour, 6 hours, and/or 24 hours an aliquot of the mixture was removed and analyzed by cation exchange HPLC, as described above. Approximately a 10% dilution of serum in PBS was used.
Approximately, 0.1 μCi [^14C]G-NH2 ([…]) is added to a reaction mixture containing 10% serum in phosphate-buffered saline (PBS) (pH 7.5) (total volume: 100 μl). The reaction was carried out for different time periods. Sera, used in the study were from human, murine (mouse and rat), avian (chicken), rabbit, simian, feline, canine, porcine, equine or bovine (cow) origin. At the completion of the time period for each reaction, approximately 200 μl cold methanol was added to stop the reaction and the samples were placed on ice for 10 minutes. Subsequently, the samples were subjected to centrifugation (5 min, 15000 rpm). The supernatants were then injected on a Cation Exchange Column (Whatman) (Partisphere-SCX) and G-NH2 and Metabolite X were separated on a gradient of ammonium phosphate buffer 5 mM pH 3.5 (Buffer A) and ammonium phosphate buffer 0.300 M pH 3.5 (Buffer B) [10 min A+6 min to 83% B+17% H2O) (C)+2 min C-+6 min to A)]. […]

[7] = Conversion of G-NH2 to modified G-NH2 by dialyzed pig plasma (cation exchange HPLC); format: in vitro ADME; conditions: for conversion to modified G-NH2 (24 hr) (percent conversion) Dialysed Pig plasma: 37° C.; for Percent conversion / μM formation: 6 hr
Procedure: In still another set of experiments, a first step isolation of the cofactor present in pig plasma was performed and the enzymatic activity of the isolated product was compared to the enzymatic activity of the crude product. An aliquot of pig plasma was placed in dialysis tubing (MW cut off 10,000) and the serum was subjected to dialysis. Subsequently, the pig plasma dialysate was evaluated for the ability to convert G-NH2 to modified G-NH2.
Various concentrations of G-NH2 were mixed with either 90% pig plasma or 90% dialyzed pig plasma in PBS and the reactions were conducted at 37° C. for 24 hours. Subsequently, aliquots of the mixtures were separated by cation exchange HPLC, as described previously, and the conversion of G-NH2 to modified G-NH2 was evaluated. […] Saturation of the enzyme activity of cofactor(s) in pig plasma (90% in PBS) occurred between 1,000 μM and 10,000 μM G-NH2.
In still another set of experiments, the saturation point of the isolated cofactor found in pig plasma was more closely scrutinized. Dialyzed pig plasma (90% in PBS) was mixed with concentrations of G-NH2 between […] and 10,000 μM. Subsequently, the mixtures were incubated at 37° C. for 6 hours and aliquots were separated by cation exchange HPLC, as before. The results shown in TABLE 8 confirmed that the saturation point of the cofactor(s) in pig plasma was near 2,000 μM G-NH2.

[8] = 2,000 μM G-NH2, dialyzed pig plasma 90% in PBS
[9] = 4,000 μM G-NH2, dialyzed pig plasma 90% in PBS
[10] = 6,000 μM G-NH2, dialyzed pig plasma 90% in PBS
[11] = 8,000 μM G-NH2, dialyzed pig plasma 90% in PBS
[12] = 10,000 μM G-NH2, dialyzed pig plasma 90% in PBS

In the case of `NC(=O)C(N)O` (stereo not drawn) [AlphaHGA, α-Hydroxy-glycinamide hydrochloride], the CC50 at 96 hr (in vitro) is reported as 606 ± 23 µM.

In the case of `NCC(=O)N1CCC[C@H]1C(=O)NCC(N)=O` [GPG-NH2, glycylprolylglycinamide] (H-Gly-Pro-Gly-NH2), the “concentration range blocking HIV-1” value [1] is given as 2 to 40 µM, the EC50 [2] is given as > 2 mM and the “no cytotoxicity at concentrations as high as” value (CEM cells) is given as 1500 to 2000 µM.

In the case of `NCC(N)=O` [G-NH2, glycinamide], the Visible syncytia (HIV (SF2 virus); 100 μM in boiled RPMI++) is reported as “positive”, the Visible syncytia (HIV (SF2 virus); 100 μM in normal RPMI++ (10% FCS)) is reported as “negative” and the “inhibition of replication and/or propagation of HIV by visual inspection” value (HIV (SF2 virus); boiled fetal calf serum) is reported as “did not”. For the same compound, the “conversion to Metabolite X” value [3] was ~100%, the “conversion of glycinamide to modified glycinamide” value [4] was “efficiently converts glycinamide to modified glycinamide” and the “conversion of G-NH2 to modified G-NH2” value ([5]; 6 hours) was 6-10%. For the same compound, the “conversion of G-NH2 to modified G-NH2” value ([5]; 24 hours) was 18-32%, the “conversion to modified glycinamide” value ([6]; human, mouse, rat, and avian sera) was “did not effectively catalyze” and the “conversion to Metabolite X” value ([6]; rabbit, simian, feline, canine, porcine, equine and bovine sera) was “readily converted to Metabolite X”. The “conversion to modified G-NH2 (24 hr) (percent conversion) Dialysed Pig plasma” value ([7]; 18 μM G-NH2, 90% in PBS) was 99.8%, the “conversion to modified G-NH2 (24 hr) (percent conversion) Dialysed Pig plasma” value ([7]; 100 μM G-NH2, 90% in PBS) was 99.8% and the “conversion to modified G-NH2 (24 hr) (percent conversion) Dialysed Pig plasma” value ([7]; 1,000 μM G-NH2, 90% in PBS) was 99.8%. For the same compound, the Percent conversion [7, 8] was 82.6%, the μM formation [7, 8] was 1,652 μM and the Percent conversion [7, 9] was 42.1%. The μM formation [7, 9] was 1,684 μM, the Percent conversion [7, 10] was 24.9% and the μM formation [7, 10] was 1,494 μM. The Percent conversion [7, 11] was 21.0%, the μM formation [7, 11] was 1,680 μM and the “conversion to modified G-NH2 (24 hr) (percent conversion) Dialysed Pig plasma” value ([7]; 10,000 μM G-NH2, 90% in PBS) was 24.7%. For the same compound, the Percent conversion [7, 12] was 17.0% and the μM formation [7, 12] was 1,700 μM.
